What was measured:
HEK293sieSTAT3(Y640F) [1] = assay: drug sensitivity score (DSS), cytotoxicity CellTox Green (DSS (dimensionless)); higher = more cytotoxic; extreme values may be limits of the assay; conditions: 72 h; STAT3 variant: Y640F (constitutively active)
Method in brief: (§1)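 HEK293 cells with a STAT3-dependent luciferase reporter, overexpressing either wild-type or mutant STAT3, were dispensed (20 μl at 100,000 cells/ml) into 384-well plates holding compounds acoustically pre-plated at 5 concentrations in 10-fold dilutions. The plates were kept for 72 hours at 37°C and 5% CO2, then CellTox Green fluorescence (485/520 nm) followed by CellTiter-Glo luminescence was read on a PHERAstar FS. Breeze was used to compute a drug sensitivity score from the dose-response curve area after normalisation to negative and positive control wells, and each value comes from one representative of two experiments.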

HEK293sieSTAT3(wt) [2] = assay: as above; conditions: 72 h; STAT3 variant: wild type
Method in brief: as §1

HEK293sieSTAT3(Y640F) [3] = assay: drug sensitivity score (DSS), viability CellTiter-Glo (DSS (dimensionless)); higher = more growth inhibition; extreme values may be limits of the assay; conditions: 72 h; STAT3 variant: Y640F (constitutively active)
Method in brief: as §1

HEK293sieSTAT3(wt) [4] = assay: as above; conditions: 72 h; STAT3 variant: wild type
Method in brief: as §1

SMILES | drug sensitivity score (HEK293sieSTAT3(Y640F) [1]) | drug sensitivity score (HEK293sieSTAT3(wt) [2]) | drug sensitivity score (HEK293sieSTAT3(Y640F) [3]) | drug sensitivity score (HEK293sieSTAT3(wt) [4])
COc1cc2c(cc1-c1c(C)noc1C)ncc1[nH]c(=O)n([C@H](C)c3ccccn3)c12 [I-BET151] (top concentration tested 10000 nM) | 2.48 | 6.67 | 8.85 | 5.57
O=C(O)c1ccc(O)c2ncccc12 [IOX-1] (top concentration tested 100000 nM) | 0 | 0 | 1.18 | 2.26
O=C(O)CNC(=O)c1c(O)c2ccccc2n(Cc2ccccc2)c1=O [IOX-2] (top concentration tested 50000 nM) | 0 | 0 | 0 | 2.91
C=CC(=O)N1CCC[C@@H](n2nc(-c3ccc(Oc4ccccc4)cc3)c3c(N)ncnc32)C1 [Ibrutinib] (top concentration tested 1000 nM) | 0.94 | 3.43 | 0.59 | 2.79
C#Cc1cccc(Nc2ncnc3cc4c(cc23)OCCOCCOCCO4)c1 [Icotinib] (top concentration tested 10000 nM) | 0 | 0.13 | 0.77 | 1.11
CC(=O)[C@]1(O)Cc2c(O)c3c(c(O)c2[C@@H](O[C@H]2C[C@H](N)[C@H](O)[C@H](C)O2)C1)C(=O)c1ccccc1C3=O [Idarubicin] (top concentration tested 1000 nM) | 7.05 | 10.7 | 27.1 | 26.9
COc1cc(C(=O)O)ccc1NC(=O)[C@@H]1N[C@@H](CC(C)(C)C)[C@](C#N)(c2ccc(Cl)cc2F)[C@H]1c1cccc(Cl)c1F [Idasanutlin] (top concentration tested 10000 nM) | 0.11 | 0 | 4.92 | 3.61
CC[C@H](Nc1ncnc2[nH]cnc12)c1nc2cccc(F)c2c(=O)n1-c1ccccc1 [Idelalisib] (top concentration tested 10000 nM) | 0 | 0.23 | 1.95 | 2.04
O=P1(NCCCl)OCCCN1CCCl (stereo not drawn) [Ifosfamide] (top concentration tested 10000 nM) | 0 | 0 | 0 | 0
Cc1ccc(NC(=O)c2ccc(CN3CCN(C)CC3)cc2)cc1Nc1nccc(-c2cccnc2)n1 [Imatinib] (top concentration tested 10000 nM) | 0.42 | 5.22 | 4.88 | 7.13
CC(C)Cn1cnc2c(N)nc3ccccc3c21 [Imiquimod] (top concentration tested 2500 nM) | 0 | 0 | 4.36 | 2.55
O=C(Nc1ccncc1)C(=O)c1cn(Cc2ccc(Cl)cc2)c2ccccc12 [Indibulin] (top concentration tested 10000 nM) | 1.19 | 5.57 | 10.7 | 16
NC(=O)c1ccc(I)c([N+](=O)[O-])c1 [Iniparib] (top concentration tested 10000 nM) | 0 | 0 | 0 | 0
CC(C)NC[C@@H](C(=O)N1CCN(c2ncnc3c2[C@H](C)C[C@H]3O)CC1)c1ccc(Cl)cc1 [Ipatasertib] (top concentration tested 10000 nM) | 0 | 0.07 | 14.6 | 16.7
CCc1c2c(nc3ccc(OC(=O)N4CCC(N5CCCCC5)CC4)cc13)-c1cc3c(c(=O)n1C2)COC(=O)[C@]3(O)CC [Irinotecan] (top concentration tested 10000 nM) | 2.17 | 6.44 | 12.2 | 14.5
CCC(C)n1ncn(-c2ccc(N3CCN(c4ccc(OCC5COC(Cn6cncn6)(c6ccc(Cl)cc6Cl)O5)cc4)CC3)cc2)c1=O (stereo not drawn) [Itraconazole] (top concentration tested 5000 nM) | 4.55 | 7.01 | 6.28 | 5.54
C/C(=C\c1csc(C)n1)[C@@H]1C[C@@H]2O[C@]2(C)CCC[C@H](C)[C@H](O)[C@@H](C)C(=O)C(C)(C)[C@@H](O)CC(=O)N1 [Ixabepilone] (top concentration tested 1000 nM) | 0.83 | 3.56 | 6.8 | 8.23
CCCNC(=O)Nc1ccc(Oc2ncnc3cc(OC)c(OC)cc23)cc1Cl [KRN-633] (top concentration tested 2500 nM) | 0 | 0.01 | 0.57 | 0.2
O=C(c1ccc(/C=C/c2n[nH]c3ccccc23)cc1)N1CCNCC1 [KW-2449] (top concentration tested 2500 nM) | 0 | 0.89 | 1.97 | 0.3
O=C(Cc1ccc(-c2ccc(OCCN3CCOCC3)cc2)cn1)NCc1ccccc1 [KX2-391] (top concentration tested 10000 nM) | 4.02 | 19.6 | 19.9 | 23.2
CN[C@@H](C)C(=O)N[C@H](C(=O)N1CCC[C@H]1c1nc(C(=O)c2ccc(F)cc2)cs1)C1CCCCC1 [LCL161] (top concentration tested 25000 nM) | 26.6 | 45 | 13.7 | 24.6
CS(=O)(=O)CCNCc1ccc(-c2ccc3ncnc(Nc4ccc(OCc5cccc(F)c5)c(Cl)c4)c3c2)o1 [Lapatinib] (top concentration tested 1000 nM) | 0 | 2.09 | 0 | 0
